What was measured:
Format in all cases: in vivo, human
[1] = Phase 1/2 pediatric study of brentuximab vedotin: serum pharmacokinetics; conditions: pediatric patients, 1.4 or 1.8 mg/kg body weight every 3 weeks, AUC versus age (FIG. 1A)
Source text: This study had assessment of pharmacokinetics of BV in pediatric patients as one of its objectives.
The goal of phase 1 portion of the study was to establish safety and define MTD (maximum tolerated dose) of brentuximab vedotin in pediatric hematological malignancies with high expression of CD30, both HL and ALCL were included in the phase 1 study population. The phase 2 study was designed to administer brentuximab vedotin at the RP2D (recommended phase II dose) determined as the MTD [Maximum Tolerated Dose] in the phase 1 portion of the study.
Blood samples for determining BV levels from the serum were obtained at several time points during treatment with BV at the dose of 1.4 or 1.8 mg/kg body weight every 3 weeks. These doses were within the range of doses that were previously determined to be safe and efficacious in the adult population in earlier studies (Younes, et al., N. Engl J Med 363; 19, Nov. 2010).
The pharmacokinetic analyses described here included pharmacokinetic data from 30 pediatric patients for the initial analyses.

[2] = tested on: relapsed or refractory (r/r) Hodgkin Lymphoma (HL) or systemic anaplastic large-cell lymphoma (sALCL); experiment: Example 2: BSA-based BV monotherapy in pediatric patients
Description: Pediatric study subjects are administered BV (administered IV infusion, once every three weeks (21 days)) at a dose of 71.5 mg/m^2. Each 21-day treatment cycle is composed of 1 day study drug treatment, followed by a monitoring period of 20 days. Patients may receive BV for up to 16 cycles. Objective response rates (ORR; complete remission (CR)+ partial remission (PR)) are determined by an independent review facility (IRF) using PET, CT, MRI and, clinical assessment according to the International Working Group (IWG) Revised Response Criteria for Malignant Lymphoma. Time to progression (from the first dose of study treatment to the date of first documented progressive disease), time to response (from the first dose of study treatment to the date of first documentation of a complete or partial response), duration of response (from the date of first documentation of a response to the date of progressive disease), event-free survival (from first dose until treatment failure), progression-free survival (PFS; from the first dose of study treatment to disease progression or death), and overall survival (OS; from the first dose of study treatment to date of death) are also evaluated. Patients are followed for progression-free survival (PFS) and overall survival (OS) every 12 weeks for 12 months after the end of treatment (EOT) visit. […]

[3] = tested on: CD30-positive cutaneous t-cell lymphomas; experiment: Example 5: BSA-based BV versus methotrexate or bexarotene in pediatric patients; conditions: BV 71.5 mg/m^2 IV every three weeks, monotherapy, up to 16 cycles
Description: Pediatric (non adult human) patients with CD30-positive cutaneous t-cell lymphomas (Primary Cutaneous Anaplastic Large Cell Lymphoma, Mycosis Fungoides, Cutaneous T-Cell Lymphoma) are provided. Study subjects are randomly assigned to one of the following treatments: 1) BV (administered IV, once every three weeks (21 days)) at a dose of 71.5 mg/m^2 as monotherapy for up to a total of 16 cycles; or 2) physician's choice of methotrexate or bexarotene (methotrexate is administered orally (5 to 50 mg) once weekly; dose adjustment is guided by patient response and toxicity or bexarotene is administered orally (300 mg/m^2) once daily with meals).
The proportion of patients achieving an objective response (ORR; complete remission (CR)+partial remission (PR)) that lasts at least 4 months is evaluated. The proportion of patients achieving complete response (CR) and progression-free survival (PFS) are also evaluated.

For brentuximab vedotin, the “systemic exposure to BV as measured by the Area Under the concentration-time Curve (AUC)” value [1] was “decrease in age from about 18 years led to decrease systemic exposure to BV”, the “CR, PR, PFS, OS relative to treatments without BV” value ([2]; 71.5 mg/m^2 IV once every three weeks, up to 16 cycles) was “one or more of improved CR, PR, PFS, or OS” and the “CR, PR, PFS, OS of BSA-adjusted doses relative to weight-adjusted dose” value ([2]; 71.5 mg/m^2 versus BV at a weight-adjusted dose) was “one or more of improved CR, PR, PFS or OS”. The “ORR, CR, PFS relative to methotrexate or bexarotene” value [3] was “one or more of improved ORR, CR or PFS”.

Source: patent US12303724B2, “Non-adult human dosing of anti-CD30 antibody-drug conjugates for treatment of hematological or lymphoid cancer” (priority 2016, dated 2025)
